Reference: US20070185161A1, “Bicyclic substituted indole-derivative steroid hormone nuclear receptor modulators” (priority 2004, published 2007)

molecular target: T1, human MR (Homo sapiens, UniProt P08235); assay: Mineralocorticoid Receptor Binding Assay (Method 1); settings: [3H]-aldosterone, racemic mixture unless otherwise indicated
T1 construct: The full length human MR gene is cloned from a human kidney or human brain cDNA library; made in house; host or cells: SF9 insect cells (baculovirus)
T1 sequence (P08235 1-984): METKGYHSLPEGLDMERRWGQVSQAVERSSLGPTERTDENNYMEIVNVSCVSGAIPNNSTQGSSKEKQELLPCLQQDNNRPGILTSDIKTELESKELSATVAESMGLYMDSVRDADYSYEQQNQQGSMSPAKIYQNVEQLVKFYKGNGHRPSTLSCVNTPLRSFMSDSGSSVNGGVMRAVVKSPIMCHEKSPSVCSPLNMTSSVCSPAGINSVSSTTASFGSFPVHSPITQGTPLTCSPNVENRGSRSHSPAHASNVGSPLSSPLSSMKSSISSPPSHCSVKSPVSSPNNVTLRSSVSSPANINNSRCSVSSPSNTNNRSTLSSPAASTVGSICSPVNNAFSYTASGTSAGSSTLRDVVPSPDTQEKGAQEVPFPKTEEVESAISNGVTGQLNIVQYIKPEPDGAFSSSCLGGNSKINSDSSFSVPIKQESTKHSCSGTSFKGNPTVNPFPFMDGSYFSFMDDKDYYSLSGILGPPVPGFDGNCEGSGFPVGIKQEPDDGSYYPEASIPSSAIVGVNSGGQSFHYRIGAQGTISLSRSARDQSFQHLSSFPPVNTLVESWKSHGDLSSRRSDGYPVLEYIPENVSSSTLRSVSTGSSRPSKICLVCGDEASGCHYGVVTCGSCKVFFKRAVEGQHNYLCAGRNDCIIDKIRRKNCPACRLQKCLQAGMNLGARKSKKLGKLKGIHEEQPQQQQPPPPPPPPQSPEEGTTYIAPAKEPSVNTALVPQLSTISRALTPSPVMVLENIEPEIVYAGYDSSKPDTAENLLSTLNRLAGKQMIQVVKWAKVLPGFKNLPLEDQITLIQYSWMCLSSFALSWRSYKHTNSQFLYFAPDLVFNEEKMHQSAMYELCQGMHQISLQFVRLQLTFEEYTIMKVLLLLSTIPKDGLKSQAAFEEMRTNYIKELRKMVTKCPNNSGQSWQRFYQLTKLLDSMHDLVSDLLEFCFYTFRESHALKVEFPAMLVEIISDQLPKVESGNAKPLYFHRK
Procedure: The full length human MR gene is cloned from a human kidney or human brain cDNA library. Briefly, using synthetic oligonucleotide primers (Eli Lilly and Company, Indianapolis) directed to nucleotides 20-54 and 3700-3666 of the human MR, polymerase chain reaction (PCR) is performed under standard conditions using a human cDNA library. The PCR reaction is performed in a final volume of 50 μl containing about 1 μl of a 50× stock solution of polymerase; about 1 μl of a 50× stock solution of dNTP; about 5 μl of an appropriate PCR buffer; about 1 μl of each primer; about 5 μl of a H. kidney or H. brain cDNA library; and about 36 μl of water. The reaction is allowed to denature for about 30 seconds at 95 degrees Celsius, anneal for about 30 seconds at 55 degrees Celsius, and extend for about 5 minutes at 72 degrees Celsius, the sequence being repeated for a total of about 35 cycles. The desired PCR product (3.68 Kb) is confirmed by gel electrophoresis and subsequently cut from the gel and stored at about −20 degrees Celsius until extraction. To extract the cDNA product from the agarose gel, the QIAEX II Gel Extraction protocol (QIAGEN, Inc.) is employed according to the manufacturer's instructions. Following extraction, the MR cDNA is cloned into an appropriate cloning vector (Zero Blunt TOPO PCR Cloning Kit (Invitrogen, Inc.) and a pAcHLT-baculovirus transfer vector (B.D./Pharminogen), then expressed in SF9 insect cells, essentially according to manufacturer's instructions. Sf9 cells are grown at a scale where gram quantity cell pellets are obtained for subsequent use in the MR binding assay. Harvested cell pellets are lysed by repeated freeze-thaw cycles (about 4) in a suitable lysis buffer then centrifuged at about 1×10^3 G (with the supernatant being saved for future assays).
MR binding assays are performed in a final total volume of about 250 μl containing about 20-25 μg of protein and 0.5 nM of [^3H]-aldosterone plus varying concentrations of test compound or vehicle. The assay binding buffer consists of 30 mM sodium molybdate, 30 mM of TRIS-HCl, 5 mM sodium phosphate, 5 mM sodium pyrophosphate, and about 10% glycerol, pH=7.5.
Briefly, assays are prepared at RT in 96-well Falcon 3072 plates, each well containing 210 μl of binding buffer, 10 μl of [^3H]-aldosterone, 10 μl of test compound/vehicle, and 20 μl of the resuspended receptor protein extract. Incubations are carried out at 4 degrees Celsius with shaking for about 16 hours. 200 μl aliquots of each incubation are filtered onto Millipore HA 0.45 micron 96-well filter plates, pre-moistened with cold 30 mM TRIS-HCl. The filter plates are suctioned dry with vacuum and immediately washed 3× with cold 30 mM TRIS-HCl. The plates are then punched out and the amount of receptor-ligand complex is determined by liquid scintillation counting using 4 ml of Ready Protein Plus™ liquid scintillation cocktail.
IC50 values (defined as the concentration of test compound required to decrease [^3H]-aldosterone binding by 50%) are then determined. Ki values for each respective test compound can then be calculated by application of the Cheng-Prusoff equation as described in Cheng et al., Relationship Between The Inhibition Constant (Ki) and The Concentration of Inhibitor Which Causes 50% Inhibition (IC50) of an Enzymatic Reaction, Biochem. Pharmacol., 22: 3099-31088; (1973).

Ki, ≤ 500 nM:
CC1(c2c[nH]c3c(NS(C)(=O)=O)cccc23)CCOc2cc(F)ccc21 (single isomer, unassigned) [Example 34B, N-[3-(7-Fluoro-4-methyl-chroman-4-yl)-1H-indol-7-yl]-methanesulfonamide]
CCC1(c2c[nH]c3c(NS(C)(=O)=O)cccc23)CCOc2cc(F)ccc21 (single isomer, unassigned) [Example 35A, N-[3-(4-Ethyl-7-fluoro-chroman-4-yl)-1H-indol-7-yl]-methanesulfonamide]
CCC1(c2c[nH]c3c(NS(C)(=O)=O)cccc23)CCOc2cc(F)ccc21 (single isomer, unassigned) [Example 35B, N-[3-(4-Ethyl-7-fluoro-chroman-4-yl)-1H-indol-7-yl]-methanesulfonamide]
CCC1(c2c[nH]c3c(NS(C)(=O)=O)cccc23)CCOc2cc(F)cc(F)c21 (single isomer, unassigned) [Example 36A, N-[3-(4-Ethyl-5,7-difluoro-chroman-4-yl)-1H-indol-7-yl]-methanesulfonamide]
CCC1(c2c[nH]c3c(NS(C)(=O)=O)cccc23)CCOc2cc(F)cc(F)c21 (single isomer, unassigned) [Example 36B, N-[3-(4-Ethyl-5,7-difluoro-chroman-4-yl)-1H-indol-7-yl]-methanesulfonamide]
CS(=O)(=O)Nc1cccc2c(C3(C4CC4)CCc4cc(F)ccc43)c[nH]c12 (single isomer, unassigned) [Example 39A, N-[3-(1-Cyclopropyl-5-fluoro-indan-1-yl)-1H-indol-7-yl]-methanesulfonamide]
CS(=O)(=O)Nc1cccc2c(C3(C4CC4)CCc4cc(F)ccc43)c[nH]c12 (single isomer, unassigned) [Example 39B, N-[3-(1-Cyclopropyl-5-fluoro-indan-1-yl)-1H-indol-7-yl]-methanesulfonamide]
CS(=O)(=O)Nc1cccc2c(C3(CCCO)CCc4cc(F)ccc43)c[nH]c12 (single isomer, unassigned) [Example 40A, N-{3-[5-Fluoro-1-(3-hydroxy-propyl)-indan-1-yl]-1H-indol-7-yl}-methanesulfonamide]
CS(=O)(=O)Nc1cccc2c(C3(CCCO)CCc4cc(F)ccc43)c[nH]c12 (single isomer, unassigned) [Example 40B, N-{3-[5-Fluoro-1-(3-hydroxy-propyl)-indan-1-yl]-1H-indol-7-yl}-methanesulfonamide]
CCC1(c2c[nH]c3c([N+](=O)[O-])cccc23)CCc2cc(F)ccc21 (stereo not drawn) [Example 2, 3-(1-Ethyl-5-fluoro-indan-1-yl)-7-nitro-1H-indole]
CCC1(c2cn(C)c3c(NS(C)(=O)=O)cccc23)CCc2cc(F)ccc21 (stereo not drawn) [Example 5, N-[3-(1-Ethyl-5-fluoro-indan-1-yl)-1-methyl-1H-indol-7-yl]-methanesulfonamide]
CCC1(c2c[nH]c3c(N)cccc23)CCc2cc(F)ccc21 (stereo not drawn) [Example 14, 3-(1-Ethyl-5-fluoro-indan-1-yl)-1H-indol-7-ylamine]
CCC1(c2c[nH]c3c(NC(=O)OC)cccc23)CCc2cc(F)ccc21 (stereo not drawn) [Example 15, [3-(1-Ethyl-5-fluoro-indan-1-yl)-1H-indol-7-yl]-carbamic acid methyl ester]
CCC1(c2c[nH]c3c(NC(C)=O)cccc23)CCc2cc(F)ccc21 (stereo not drawn) [Example 16, N-[3-(1-ethyl-5-fluoro-indan-1-yl)-1H-indol-7-yl]-acetamide]
CCC1(c2c[nH]c3c(NS(=O)(=O)N(C)C)cccc23)CCc2cc(F)ccc21 (stereo not drawn) [Example 17]
CCC1(c2c[nH]c3c(NS(=O)(=O)c4ccccc4)cccc23)CCc2cc(F)ccc21 (stereo not drawn) [Example 18, N-[3-(1-ethyl-5-fluoro-indan-1-yl)-1H-indol-7-yl]-benzenesulfonamide]
CCC1(c2c[nH]c3c(NS(=O)(=O)CC)cccc23)CCc2cc(F)ccc21 (stereo not drawn) [Example 19, Ethanesulfonic acid [3-(1-ethyl-5-fluoro-indan-1-yl)-1H-indol-7-yl]-amide]
CC1(c2c[nH]c3c(NS(C)(=O)=O)cccc23)CCc2ccccc21 (stereo not drawn) [Example 20, N-[3-(1-Methyl-indan-1-yl)-1H-indol-7-yl]-methanesulfonamide]
CC1(c2c[nH]c3c(NS(C)(=O)=O)cccc23)CCc2cc(-n3cccn3)ccc21 (stereo not drawn) [Example 24, N-[3-(1-Methyl-5-pyrazol-1-yl-indan-1-yl)-1H-indol-7-yl]-methanesulfonamide]
CS(=O)(=O)Nc1cccc2c(C3CCCc4ccccc43)c[nH]c12 (stereo not drawn) [Example 25, N-[3-(1,2,3,4-Tetrahydro-naphthalen-1-yl)-1H-indol-7-yl]-methanesulfonamide]
CC1(c2c[nH]c3c(NS(C)(=O)=O)cccc23)CCCc2ccccc21 (stereo not drawn) [Example 26, N-[3-(1-Methyl-1,2,3,4-tetrahydro-naphthalen-1-yl)-1H-indol-7-yl]-methanesulfonamide]
CCC1(c2c[nH]c3c(NS(C)(=O)=O)cccc23)CCCc2ccccc21 (stereo not drawn) [Example 27, N-[3-(1-Ethyl-1,2,3,4-tetrahydro-naphthalen-1-yl)-1H-indol-7-yl]-methanesulfonamide]
CC1(c2c[nH]c3c(NS(C)(=O)=O)cccc23)CCOc2ccccc21 (stereo not drawn) [Example 32, N-[3-(4-Methyl-chroman-4-yl)-1H-indol-7-yl]-methanesulfonamide]
CC1(c2c[nH]c3c(NS(C)(=O)=O)cccc23)CCOc2ccc(F)cc21 (stereo not drawn) [Example 33, N-[3-(6-Fluoro-4-methyl-chroman-4-yl)-1H-indol-7-yl]-methanesulfonamide]
CC1(c2c[nH]c3c(NS(C)(=O)=O)cccc23)CCSc2ccccc21 (stereo not drawn) [Example 37, N-[3-(4-Methyl-thiochroman-4-yl)-1-indol-7-yl]-methanesulfonamide]
CC1(c2c[nH]c3c(NS(C)(=O)=O)cccc23)CCCCc2ccccc21 (stereo not drawn) [Example 38, N-[3-(5-Methyl-6,7,8,9-tetrahydro-5H-benzocyclohepten-5-yl)-1H-indol-7-yl]-methanesulfonamide]
CS(=O)(=O)Nc1cccc2c(C3(CCCI)CCc4cc(F)ccc43)c[nH]c12 (stereo not drawn) [Example 41, N-{3-[5-Fluoro-1-(3-iodo-propyl)-indan-1-yl]-1H-indol-7-yl}-methanesulfonamide]
